For orientation: solubility means the dissolved amount per volume that the medium holds.

≈ marks a conversion by molar mass, not a printed value.

This data set concerns kinetic aqueous solubility, PBS pH 7.4, LC-UV/MS. Briefly: Inhibitors of HPGD: Aqueous Solubility Profiling. To be noted: stronger effect = higher value.

As for `Cc1cc(-c2nnc3n2CCCCC3)c(C)n1-c1ccccc1`, the solubility is 35.9 µM (≈ 11 µg/mL). In the case of `Cc1cccc(-n2cnc3cc(C(=O)N4CCCCC4)ccc32)c1`, the solubility is 3 µM (≈ 0.958 µg/mL).

(Values after PubChem BioAssay AID504606 (National Center for Advancing Translational Sciences (NCATS), 2011).)
